# What was measured:
# [1] = test system: Escherichia coli (ATCC 8739); assay: Minimal Inhibitory Concentration (MIC) on Escherichia coli with or without PMBN, OD600 after O/N growth; type: cell-based; conditions: for MIC / Minimal inhibitory concentration With PMBN: E. coli (ATCC 8739); for MIC: molecule alone; for Minimal inhibitory concentration With PMBN: together with PMBN at 40 μg/ml
# Method: The Minimal Inhibitory Concentration (MIC) of molecules 2329, 2412, 2452 and 2461 together with polymyxin B nonapeptide (PMBN) was determined on Escherichia coli (ATCC 8739) according to EUCAST (European Committee on Antimicrobial Susceptibility Testing) recommendations.
# (§1) Briefly, a single colony grown on a Luria-Bertani Agar (LB) plate was resuspended and cultured in the LB medium overnight (O/N) in aerobic conditions (37° C. with 220 rpm shaking), next day a 1:50 inoculum in Mueller-Hinton broth (MHB) was incubated in aerobic conditions for 1h30 (OD=0.08-0.1) and an inoculum of 1:300 dilution, corresponding to 3×10^6 CFU/ml, was incubated in presence or absence of different concentrations of the molecules in 1% DMSO (vehicle) with or without Polymyxin B nonapeptide (PMBN) at 40 μg/ml. After O/N growth the OD of each culture was measured at 600 nm in a spectrophotometer (OD600). The MIC represents the concentration at which there is no visible growth of bacteria, i.e. ΔOD at 600 nm equal to zero wherein ΔOD is the difference between the resulting optical density (OD) with the molecule together with PMBN, and the optical density (OD) of the blank (blank is the medium) alone.
# (§2) A single colony grown on an Lurian-Bertani (LB) agar plate is resuspended and cultured in LB medium overnight (O/N) in aerobic conditions (37° C. with 220 rpm shaking), next day a 1:50 inoculum in Mueller-Hinton broth (MHB) is incubated in aerobic conditions for 1h30 (OD=0.08-0.1) and an inoculum of 1:300 dilution, corresponding to 3×10^6 CFU/ml, is incubated in presence or absence of different concentrations of the tested molecules in 1% DMSO (vehicle) with or without PMBN at 40 μg/ml. After O/N growth the OD of each culture was measured at 600 nm (OD600) in a spectrophotometer (Victor 3-Perkin Elmer). The MIC represents the concentration at which there is no visible growth of bacteria, i.e. ΔOD at 600 nm equal to zero wherein ΔOD is the difference between the resulting optical density (OD) with the molecule together with PMBN, and the optical density (OD) of the blank (blank is the medium) alone.
# as §1, with “cultured in LB medium” for “cultured in the LB medium”, “of the above-mentioned molecules in” for “of the molecules in”
# as §2, with “a Luria-Bertani” for “an Lurian-Bertani”, “above-mentioned pyrazolopyrimidine molecule” for “tested molecules”, “alone. […]” for “alone.”
# [2] = test system: Pseudomonas aeruginosa (ATCC27853); assay: Minimal Inhibitory Concentration (MIC) on Pseudomonas aeruginosa with or without PMBN; type: cell-based; conditions: Pseudomonas aeruginosa (ATCC 27853); for Minimal inhibitory concentration without PMBN: molecule alone; for Minimal inhibitory concentration With PMBN: together with PMBN at 0.5 μg/ml
# Method: A single colony grown on an tryptic soy agar plate is resuspended and cultured in tryptic soy broth medium overnight (O/N) in aerobic conditions (37° C. with 220 rpm shaking), next day a 1:100 inoculum in Mueller-Hinton broth (MHB) is incubated in aerobic conditions for 3h (OD=0.5-0.6) and an inoculum of 1:1000 dilution, corresponding to 1-3×10^5 CFU/ml, is incubated in presence or absence of different concentrations of the tested molecules in 1% DMSO (vehicle) with or without PMBN at 0.5 μg/ml. After 28-30h growth the OD of each culture was measured at 600 nm (OD600) in a spectrophotometer (Victor 3-Perkin Elmer). The MIC represents the concentration at which there is no visible growth of bacteria, i.e. ΔOD at 600 nm equal to zero (blank is the medium alone) wherein ΔOD is the difference between the resulting optical density (OD) with the molecule together with PMBN, and the optical density (OD) of the blank (blank is the medium) alone.
# [3] = 100 μM together with 40 μg/ml PMBN
# [4] = with 10 to 50 µg/ml PMBN, particularly 40 μg/ml
SMILES,MIC [1] [µM],"MIC ([1]; Escherichia coli, ATCC8739) [µM]",OD600 nm after O/N growth of Escherichia coli (FIG. 4) ([1]; 20 μM with 40 μg/ml PMBN),Minimal inhibitory concentration With PMBN [1] [µM],"Activity against Escherichia coli (ATCC 8739), conclusion ([1]; with 40 μg/ml PMBN)",Minimal inhibitory concentration without PMBN [2] [µM],Minimal inhibitory concentration With PMBN [2] [µM],OD600 nm after O/N growth of Escherichia coli (FIG. 4) ([1]; 50 μM with 40 μg/ml PMBN),Antibacterial activity against E. coli (ATCC8739) [1],"OD600 nm after O/N growth of Escherichia coli (FIG. 4) [1, 3]","Activity against Escherichia coli (ATCC 8739), conclusion [1, 4]"
"CCCCCOc1nc(NCc2ccccc2)c2ncn(Cc3c(F)ccc(C)c3F)c2n1 [molecule 40z″, N-benzyl-9-(2,6-difluoro-3-methylbenzyl)-2(pentyloxy)-9H-purin-6-amine, reference compound]",,,,> 100,,,,,no antibacterial activity,did not differ from vehicle control,no antibacterial activity
"CCCCOc1nc(NCc2ccccc2)c2ncn(Cc3c(F)ccc(C)c3F)c2n1 [molecule 39z″, N-Benzyl-2-butoxy-9-(2,6-difluoro-3-methylbenzyl)-9H-purin-6-amine, reference compound]",,,,> 100,,,,,no antibacterial activity,did not differ from vehicle control,no antibacterial activity
"CCCCOc1nc(NC2CC2)c2ncn(Cc3c(F)ccc(C)c3F)c2n1 [molecule 38z″, 2-Butoxy-N-cyclopropyl-9-(2,6-difluoro-3-methylbenzyl)-9H-purin-6-amine, reference compound]",,,,> 100,,,,,no antibacterial activity,did not differ from vehicle control,no antibacterial activity
"C=CCn1cnc2c(N[C@@H]3C[C@H]3c3ccc(F)c(F)c3)nc(SCCC)nc21 [molecule 2412, 9-allyl-N-((1R,2S)-2-(3,4-difluorophenyl)cyclopropyl)-2-(propylthio)-9H-purin-6-amine]",>100,> 100,,50,,>100,50,,,,
"CCCCSc1nc(NCc2c(F)ccc(C)c2F)c2ncn(Cc3c(F)ccc(C)c3F)c2n1 [molecule 41z″, 2-(Butylthio)-N,9-bis(2,6-difluoro-3-methylbenzyl)-9H-purin-6-amine, reference compound]",,,,> 100,,,,,no antibacterial activity,did not differ from vehicle control,no antibacterial activity

# Continued, in another order:
MIC [1] [µM],"MIC ([1]; Escherichia coli, ATCC8739) [µM]",SMILES,OD600 nm after O/N growth of Escherichia coli (FIG. 4) ([1]; 20 μM with 40 μg/ml PMBN),Minimal inhibitory concentration With PMBN [1] [µM],"Activity against Escherichia coli (ATCC 8739), conclusion ([1]; with 40 μg/ml PMBN)",Minimal inhibitory concentration without PMBN [2] [µM],Minimal inhibitory concentration With PMBN [2] [µM],OD600 nm after O/N growth of Escherichia coli (FIG. 4) ([1]; 50 μM with 40 μg/ml PMBN),Antibacterial activity against E. coli (ATCC8739) [1],"OD600 nm after O/N growth of Escherichia coli (FIG. 4) [1, 3]","Activity against Escherichia coli (ATCC 8739), conclusion [1, 4]"
>100,> 100,"CCCSc1nc(N[C@@H]2C[C@H]2c2ccc(F)c(F)c2)c2ncn([C@@H]3C[C@H](O)[C@@H](O)[C@H]3O)c2n1 [molecule 2461, (1S,2R,3S,4R)-4-(6-(((1R,2S)-2-(3,4-difluorophenyl)cyclopropyl)amino)-2-(propylthio)-9H-purin-9-yl)cyclopentane-1,2,3-triol]",killed all bacteria,10,bactericidal activity,>100,50,,,,
>100,> 100,"CCn1cnc2c(N[C@@H]3C[C@H]3c3ccc(F)c(F)c3)nc(SC)nc21 [molecule 2511, N-((1R,2S)-2-(3,4-difluorophenyl)cyclopropyl)-9-ethyl-2-(methylthio)-9H-purin-6-amine]",,50,bactericidal activity,,,killed all bacteria,,,
>100,> 100,"CCSc1nc(N[C@@H]2C[C@H]2c2ccc(F)c(F)c2)c2ncn(C)c2n1 [molecule 2525, N-((1R,2S)-2-(3,4-difluorophenyl)cyclopropyl)-2-(ethylthio)-9-methyl-9H-purin-6-amine]",,50,bactericidal activity,,,killed all bacteria,,,
>100,> 100,"C#CCn1cnc2c(N[C@@H]3C[C@H]3c3ccc(F)c(F)c3)nc(SCCC)nc21 [molecule 2452, N-((1R,2S)-2-(3,4-difluorophenyl)cyclopropyl)-9-(prop-2-yn-1-yl)-2-(propylthio)-9H-purin-6-amine]",,10,,>100,50,,,,
>100,> 100,"CSc1nc(N[C@@H]2C[C@H]2c2ccc(F)c(F)c2)c2cnn(C)c2n1 [molecule 2539, N-((1R,2S)-2-(3,4-difluorophenyl)cyclopropyl)-1-methyl-6-(methylthio)-1H-pyrazolo[3,4-d]pyrimidin-4-amine]",,25,bactericidal activity,,,killed all bacteria,,,
>100,> 100,"CCCCSc1nc(N[C@@H]2C[C@H]2c2ccc(F)c(F)c2)c2ncn(C)c2n1 [molecule 2833, 2-(butylthio)-N-((1R,2S)-2-(3,4-difluorophenyl)cyclopropyl)-9-methyl-9H-purin-6-amine]",,90,,,,,,,

# Source: US12318388B2, “Pyrimidine derivatives for prevention and treatment of gram-negative bacterial infection, contamination and fouling” (UNIVERSITÉ DE LIÈGE, priority 2019, dated 2025)
